Data taken from the supplement of paper PMC11451515.

System: NOMO1
Experiment: cell viability relative to DMSO control; higher = less cytotoxic
Settings: 48 h
In short: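 NOMO1 or SEM cells were plated at 500 cells/well and P12-Ichikawa cells at 1000 cells/well in 1536-well plates (5 μl), after each leukemia line had been adapted for at least four passages in each medium. Pin dosing delivered library compounds in DMSO at 11 threefold concentrations, 47 μM to 0.79 nM. CellTiter-Glo One luminescence was read after 48 h at 37°C. Viability is reported as a per-plate percentage of DMSO wells, with cell-free wells as background.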

[1] = HPLM + 10% dialyzed FBS, 0.000781 µM
[2] = HPLM + 10% dialyzed FBS, 0.00234 µM
[3] = HPLM + 10% dialyzed FBS, 0.00702 µM
[4] = HPLM + 10% dialyzed FBS, 0.0211 µM
[5] = HPLM + 10% dialyzed FBS, 0.0632 µM
[6] = HPLM + 10% dialyzed FBS, 0.19 µM
[7] = HPLM + 10% dialyzed FBS, 0.569 µM
[8] = HPLM + 10% dialyzed FBS, 1.71 µM
[9] = HPLM + 10% dialyzed FBS, 5.12 µM
[10] = HPLM + 10% dialyzed FBS, 15.4 µM
[11] = HPLM + 10% dialyzed FBS, 46.1 µM
[12] = RPMI 5 mM glucose + 10% FBS, 0.000781 µM
[13] = RPMI 5 mM glucose + 10% FBS, 0.00234 µM
[14] = RPMI 5 mM glucose + 10% FBS, 0.00702 µM
[15] = RPMI 5 mM glucose + 10% FBS, 0.0211 µM
[16] = RPMI 5 mM glucose + 10% FBS, 0.0632 µM
[17] = RPMI 5 mM glucose + 10% FBS, 0.19 µM
[18] = RPMI 5 mM glucose + 10% FBS, 0.569 µM
[19] = RPMI 5 mM glucose + 10% FBS, 1.71 µM
[20] = RPMI 5 mM glucose + 10% FBS, 5.12 µM
[21] = RPMI 5 mM glucose + 10% FBS, 15.4 µM
[22] = RPMI 5 mM glucose + 10% FBS, 46.1 µM
[23] = RPMI 5 mM glucose + 10% dialyzed FBS, 0.000781 µM
[24] = RPMI 5 mM glucose + 10% dialyzed FBS, 0.00234 µM
[25] = RPMI 5 mM glucose + 10% dialyzed FBS, 0.00702 µM
[26] = RPMI 5 mM glucose + 10% dialyzed FBS, 0.0211 µM
[27] = RPMI 5 mM glucose + 10% dialyzed FBS, 0.0632 µM
[28] = RPMI 5 mM glucose + 10% dialyzed FBS, 0.19 µM
[29] = RPMI 5 mM glucose + 10% dialyzed FBS, 0.569 µM
[30] = RPMI 5 mM glucose + 10% dialyzed FBS, 1.71 µM
[31] = RPMI 5 mM glucose + 10% dialyzed FBS, 5.12 µM
[32] = RPMI 5 mM glucose + 10% dialyzed FBS, 15.4 µM
[33] = RPMI 5 mM glucose + 10% dialyzed FBS, 46.1 µM

Row | SMILES | cell viability [1] | cell viability [2] | cell viability [3] | cell viability [4] | cell viability [5] | cell viability [6] | cell viability [7] | cell viability [8] | cell viability [9] | cell viability [10] | cell viability [11] | cell viability [12] | cell viability [13] | cell viability [14] | cell viability [15] | cell viability [16] | cell viability [17] | cell viability [18] | cell viability [19] | cell viability [20] | cell viability [21] | cell viability [22] | cell viability [23] | cell viability [24] | cell viability [25] | cell viability [26] | cell viability [27] | cell viability [28] | cell viability [29] | cell viability [30] | cell viability [31] | cell viability [32] | cell viability [33]
1 | Cc1ccccc1C(C(=O)NC1CCCCC1)N(C(=O)Cn1ccnc1C)c1cccc(F)c1 (centres undefined) | 96.4% | 93.1% | 122% | 119% | 123% | 111% | 108% | 90% | 100% | 99.2% | 89.4% | 88.6% | 93.9% | 102% | 91.9% | 93.9% | 109% | 106% | 91.7% | 90.7% | 86% | 97.3% | 104% | 85.9% | 104% | 106% | 99.1% | 116% | 100% | 91% | 91.4% | 93.3% | 80.7%
2 | CC1CCC(C(=O)N(c2cc(C#CC(C)(C)C)sc2C(=O)O)C2CCC(O)CC2)CC1 (centres undefined) | 108% | 98.7% | 111% | 113% | 96% | 92.9% | 98.7% | 85% | 78.9% | 50.1% | 53.5% | 87.2% | 98.8% | 91.5% | 90.9% | 85% | 87.9% | 88.6% | 87.7% | 78.1% | 75.1% | 59.8% | 97.5% | 97.1% | 89.7% | 98.3% | 96.5% | 86.3% | 93.2% | 81.7% | 79.9% | 65.2% | 46.1%
3 | C/C=C1\NC(=O)[C@H]2CSSCC/C=C\[C@H](CC(=O)N[C@H](C(C)C)C(=O)N2)OC(=O)[C@H](C(C)C)NC1=O | 102% | 119% | 119% | 105% | 17.7% | 4.68% | 4.81% | 4.43% | 5.27% | 4.81% | 4.24% | 99.6% | 97.5% | 104% | 94.9% | 18.1% | 4.23% | 3.46% | 3.14% | 2.93% | 2.29% | 2.53% | 93.7% | 90.3% | 103% | 108% | 30.1% | 4.52% | 4.41% | 3.52% | 3.86% | 1.77% | 3.47%
